Test results reported in patent publication US11098044B2, “Imidazopyridinyl compounds and use thereof for treatment of neurodegenerative disorders” (1ST Biotherapeutics, Inc., priority 2019, dated 2021).

Tests used:
Assay type in all cases: biochemical
LRRK2 G2019S = LRRK2 G2019S (Homo sapiens (Human), UniProt Q5S007, G2019S); assay: LRRK2 G2019S Kinase Assay (Adapta); details: 100 μM ATP, LRRKtide substrate; read-out: LRRK2_G2019S IC50
Method in brief: (§1)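 Adapta TR-FRET kinase assay with LRRKtide substrate in 50 mM Tris pH 8.5, 0.01% BRIJ-35, 10 mM MgCl2, 1 mM EGTA, 0.02% NaN3. ATP at Km: 70 μM for WT LRRK2, 100 μM for G2019S. Reaction 1 h at room temperature; after 60 min with detection mix, 665/615 nm emission ratio read.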

LRRK2 (WT) = LRRK2 (WT) (Homo sapiens (Human), UniProt Q5S007); assay: LRRK2 Kinase Assay (Adapta); details: 70 μM ATP, LRRKtide substrate
Sequence of LRRK2 (WT) (Q5S007 whole entry): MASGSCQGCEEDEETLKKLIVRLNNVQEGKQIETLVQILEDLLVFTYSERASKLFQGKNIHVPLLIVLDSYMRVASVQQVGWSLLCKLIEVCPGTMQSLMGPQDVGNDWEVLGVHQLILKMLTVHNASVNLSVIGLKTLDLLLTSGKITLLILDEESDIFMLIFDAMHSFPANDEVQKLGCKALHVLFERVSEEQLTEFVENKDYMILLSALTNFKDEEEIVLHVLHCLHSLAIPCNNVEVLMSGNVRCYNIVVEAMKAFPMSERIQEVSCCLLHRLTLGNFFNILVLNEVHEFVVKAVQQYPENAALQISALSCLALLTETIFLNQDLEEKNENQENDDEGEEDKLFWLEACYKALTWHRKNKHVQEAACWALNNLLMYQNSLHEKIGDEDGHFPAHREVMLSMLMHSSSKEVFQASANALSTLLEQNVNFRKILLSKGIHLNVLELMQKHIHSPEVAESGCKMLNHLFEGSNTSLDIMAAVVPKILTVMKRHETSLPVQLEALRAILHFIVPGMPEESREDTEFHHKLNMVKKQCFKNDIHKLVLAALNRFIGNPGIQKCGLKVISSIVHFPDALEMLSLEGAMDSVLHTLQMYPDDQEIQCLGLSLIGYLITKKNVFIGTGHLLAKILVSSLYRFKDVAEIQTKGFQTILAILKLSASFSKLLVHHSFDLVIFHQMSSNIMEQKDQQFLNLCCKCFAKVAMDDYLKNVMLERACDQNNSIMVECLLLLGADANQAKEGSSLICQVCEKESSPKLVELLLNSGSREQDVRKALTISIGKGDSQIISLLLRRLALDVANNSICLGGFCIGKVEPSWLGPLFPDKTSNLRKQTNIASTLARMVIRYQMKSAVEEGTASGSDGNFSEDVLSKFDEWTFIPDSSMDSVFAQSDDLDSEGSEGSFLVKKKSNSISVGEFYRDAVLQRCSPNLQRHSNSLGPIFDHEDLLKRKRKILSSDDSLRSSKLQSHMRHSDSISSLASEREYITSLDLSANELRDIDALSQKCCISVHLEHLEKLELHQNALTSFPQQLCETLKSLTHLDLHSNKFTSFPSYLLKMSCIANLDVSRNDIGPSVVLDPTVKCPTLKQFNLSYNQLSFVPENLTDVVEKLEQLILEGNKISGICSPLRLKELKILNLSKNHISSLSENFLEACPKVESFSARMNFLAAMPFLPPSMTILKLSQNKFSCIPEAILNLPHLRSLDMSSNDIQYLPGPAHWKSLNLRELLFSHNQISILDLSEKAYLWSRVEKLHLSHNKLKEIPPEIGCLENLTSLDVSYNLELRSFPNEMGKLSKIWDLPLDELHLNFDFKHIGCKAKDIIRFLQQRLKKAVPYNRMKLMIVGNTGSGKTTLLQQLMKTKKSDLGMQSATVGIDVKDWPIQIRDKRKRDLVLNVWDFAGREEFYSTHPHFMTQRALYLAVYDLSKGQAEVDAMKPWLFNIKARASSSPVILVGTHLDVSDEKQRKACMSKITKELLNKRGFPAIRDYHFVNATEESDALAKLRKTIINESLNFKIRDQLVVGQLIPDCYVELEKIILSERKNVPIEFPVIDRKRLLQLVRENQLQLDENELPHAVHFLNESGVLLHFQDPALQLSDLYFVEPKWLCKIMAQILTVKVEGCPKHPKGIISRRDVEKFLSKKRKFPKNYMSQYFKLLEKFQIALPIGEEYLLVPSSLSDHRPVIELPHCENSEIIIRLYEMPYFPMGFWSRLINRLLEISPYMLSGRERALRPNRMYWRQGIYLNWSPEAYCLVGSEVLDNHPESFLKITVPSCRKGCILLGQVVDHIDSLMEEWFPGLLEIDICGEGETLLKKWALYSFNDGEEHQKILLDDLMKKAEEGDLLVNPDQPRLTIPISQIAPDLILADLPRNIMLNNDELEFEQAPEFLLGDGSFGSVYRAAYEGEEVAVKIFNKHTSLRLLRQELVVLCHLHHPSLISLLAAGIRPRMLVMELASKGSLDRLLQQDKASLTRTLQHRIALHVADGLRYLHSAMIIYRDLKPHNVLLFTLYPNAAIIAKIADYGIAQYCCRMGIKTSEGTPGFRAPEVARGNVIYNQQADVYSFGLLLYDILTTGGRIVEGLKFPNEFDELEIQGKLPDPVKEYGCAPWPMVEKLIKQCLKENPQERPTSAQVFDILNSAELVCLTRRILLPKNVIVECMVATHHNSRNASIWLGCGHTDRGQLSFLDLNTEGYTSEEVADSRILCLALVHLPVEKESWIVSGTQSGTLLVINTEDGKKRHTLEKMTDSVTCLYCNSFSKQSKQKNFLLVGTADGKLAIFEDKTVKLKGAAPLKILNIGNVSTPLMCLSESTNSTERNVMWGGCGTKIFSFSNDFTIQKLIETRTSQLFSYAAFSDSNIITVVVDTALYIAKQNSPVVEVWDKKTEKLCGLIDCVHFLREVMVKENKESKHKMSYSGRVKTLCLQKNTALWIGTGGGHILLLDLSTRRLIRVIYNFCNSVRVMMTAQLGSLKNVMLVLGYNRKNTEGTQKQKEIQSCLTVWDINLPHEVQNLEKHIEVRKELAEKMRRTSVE
Method in brief: as §1

[1] = biological target: c-Abl (His-tagged recombinant human ABL1) (Homo sapiens (Human), UniProt P00519); assay: c-abl Kinase Assay (ADP-Glo); details: ATP (25 μM), Abltide substrate
Sequence of c-Abl (His-tagged recombinant human ABL1) (P00519 whole entry): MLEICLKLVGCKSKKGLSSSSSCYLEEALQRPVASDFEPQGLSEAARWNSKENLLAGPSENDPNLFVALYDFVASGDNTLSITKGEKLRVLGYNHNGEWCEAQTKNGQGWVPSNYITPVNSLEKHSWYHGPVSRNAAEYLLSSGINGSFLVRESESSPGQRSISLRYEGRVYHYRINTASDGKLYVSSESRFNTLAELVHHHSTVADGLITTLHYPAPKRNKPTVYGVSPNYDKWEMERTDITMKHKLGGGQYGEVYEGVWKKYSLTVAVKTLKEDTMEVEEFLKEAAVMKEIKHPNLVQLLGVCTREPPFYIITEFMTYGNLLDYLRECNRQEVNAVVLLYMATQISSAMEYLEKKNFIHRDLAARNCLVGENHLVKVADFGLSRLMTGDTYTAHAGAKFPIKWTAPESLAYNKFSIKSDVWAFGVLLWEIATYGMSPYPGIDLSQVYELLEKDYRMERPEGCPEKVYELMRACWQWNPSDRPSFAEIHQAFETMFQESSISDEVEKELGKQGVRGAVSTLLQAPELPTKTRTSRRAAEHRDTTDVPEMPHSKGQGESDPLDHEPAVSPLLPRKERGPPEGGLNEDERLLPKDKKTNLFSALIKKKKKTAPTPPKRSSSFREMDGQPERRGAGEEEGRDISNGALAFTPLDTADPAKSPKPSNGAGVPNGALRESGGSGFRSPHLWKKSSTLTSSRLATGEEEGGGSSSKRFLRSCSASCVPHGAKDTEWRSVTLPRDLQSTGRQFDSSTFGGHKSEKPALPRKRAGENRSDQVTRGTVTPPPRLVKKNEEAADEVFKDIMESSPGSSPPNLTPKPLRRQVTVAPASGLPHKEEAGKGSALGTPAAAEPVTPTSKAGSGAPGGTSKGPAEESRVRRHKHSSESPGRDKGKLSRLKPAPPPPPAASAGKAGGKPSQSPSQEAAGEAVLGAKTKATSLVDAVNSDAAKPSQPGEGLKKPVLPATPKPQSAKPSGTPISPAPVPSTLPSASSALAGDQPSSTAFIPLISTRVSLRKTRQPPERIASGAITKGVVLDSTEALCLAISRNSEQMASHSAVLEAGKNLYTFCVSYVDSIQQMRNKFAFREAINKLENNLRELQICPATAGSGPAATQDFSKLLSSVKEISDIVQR
Method in brief: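 His-tagged human ABL1 (0.25 ng/μl), Abltide (0.01 μg/μl) and ATP (25 μM), each at its added concentration, reacted with compound (0.5% DMSO) for 30 min at 30 °C. Buffer was 50 mM HEPES pH 7.5, 10 mM MgCl2, 1 mM EGTA, 0.05% BSA, 0.01% Triton X-100, 2 mM DTT. ADP formed was read by ADP-Glo luminescence, and IC50 was fitted from percent inhibition across concentrations.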

Sequence of LRRK2 G2019S (Q5S007 whole entry G2019S): as the sequence (Q5S007 whole entry) above, with G2019S counted along it

IC50 (LRRK2 G2019S) [nM] | IC50 (LRRK2 (WT)) [nM] | IC50 [1] [nM] | Structure (SMILES)
10 to 100 | 101 to 1000 | < 10 | Cc1c(F)cccc1-c1ccc2nc(NC(=O)[C@H]3C[C@H]3F)cn2c1 (stereo in doubt) [Example 73, 2-fluoro-N-(6-(3-fluoro-2-methylphenyl)imidazo[1,2-a]pyridin-2-yl)cyclopropanecarboxamide]
10 to 100 | 101 to 1000 | < 10 | CSc1c(F)cccc1-c1ccc2nc(NC(=O)[C@@H]3C[C@@H]3F)cn2c1 [Example 66, (1S,2S)-2-fluoro-N-(6-(3-fluoro-2-(methylthio)phenyl)imidazo[1,2-a]pyridin-2-yl)cyclopropanecarboxamide]
> 1000 | 101 to 1000 | 101 to 1000 | O=C(Nc1cn2cc(-c3cccc(F)c3COCCO)ccc2n1)[C@@H]1C[C@@H]1F [Example 83, (1S,2S)-2-fluoro-N-(6-(3-fluoro-2-((2-hydroxyethoxy)methyl)phenyl)imidazo[1,2-a]pyridin-2-yl)cyclopropanecarboxamide]
> 1000 | > 1000 | 10 to 100 | CC(=O)c1c(F)cccc1-c1ccc2nc(NC(=O)[C@@H]3C[C@@H]3F)cn2c1 [Example 68, (1S,2S)—N-(6-(2-acetyl-3-fluorophenyl)imidazo[1,2-a]pyridin-2-yl)-2-fluorocyclopropanecarboxamide]
> 1000 | > 1000 | 101 to 1000 | CC(=O)NCc1c(F)cccc1-c1ccc2nc(NC(=O)[C@@H]3C[C@@H]3F)cn2c1 [Example 75, (1S,2S)—N-(6-(2-(acetamidomethyl)-3-fluorophenyl)imidazo[1,2-a]pyridin-2-yl)-2-fluorocyclopropanecarboxamide]

Further lines, the molecule ahead of its results:

Structure (SMILES) | IC50 (LRRK2 G2019S) [nM] | IC50 (LRRK2 (WT)) [nM] | IC50 [1] [nM]
Cc1ccc(N)cc1-c1ccc2nc(NC(=O)[C@@H]3C[C@@H]3F)cn2c1 [Example 23, (1S,2S)—N-(6-(5-amino-2-methylphenyl)imidazo[1,2-a]pyridin-2-yl)-2-fluorocyclopropane-1-carboxamide] | 10 to 100 | 101 to 1000 | < 10
Cc1cccc(F)c1-c1ccc2nc(NC(=O)[C@@H]3C[C@@H]3F)c(Cl)n2c1 [Example 4, (1S,2S)—N-(3-chloro-6-(2-fluoro-6-methylphenyl)imidazo[1,2-a]pyridin-2-yl)-2-fluorocyclopropane-1-carboxamide] | 101 to 1000 | > 1000 | 10 to 100
Cc1c(F)cccc1-c1ccc2nc(NC(=O)[C@@H]3C[C@@H]3F)c(Cl)n2c1 [Example 3, (1S,2S)—N-(3-chloro-6-(3-fluoro-2-methylphenyl)imidazo[1,2-a]pyridin-2-yl)-2-fluorocyclopropane-1-carboxamide] | 101 to 1000 | 101 to 1000 | 10 to 100
Cc1ccc(O)cc1-c1ccc2nc(NC(=O)[C@@H]3C[C@@H]3F)cn2c1 [Example 12, (1S,2S)-2-fluoro-N-(6-(5-hydroxy-2-methylphenyl)imidazo[1,2-a]pyridin-2-yl)cyclopropane-1-carboxamide] | 10 to 100 | 10 to 100 | < 10
Cc1c(F)ccc(F)c1-c1ccc2nc(NC(=O)[C@@H]3C[C@@H]3F)cn2c1 [Example 45, (1S,2S)—N-(6-(3,6-difluoro-2-methylphenyl)imidazo[1,2-a]pyridin-2-yl)-2-fluorocyclopropane-1-carboxamide] | 10 to 100 | 101 to 1000 | < 10
Cc1ccc2c(c1-c1ccc3nc(NC(=O)[C@@H]4C[C@@H]4F)cn3c1)CC(=O)N2 [Example 51, (1S,2S)-2-fluoro-N-(6-(5-methyl-2-oxoindolin-4-yl)imidazo[1,2-a]pyridin-2-yl)cyclopropane-1-carboxamide] | > 1000 | > 1000 | < 10
Cc1ccc(F)cc1-c1ccc2nc(NC(=O)[C@@H]3C[C@@H]3F)cn2c1 [Example 11, (1S,2S)-2-fluoro-N-(6-(5-fluoro-2-methylphenyl)imidazo[1,2-a]pyridin-2-yl)cyclopropane-1-carboxamide] | 10 to 100 | 10 to 100 | < 10
Cc1c(F)cccc1-c1ccc2nc(NC(=O)[C@@H]3C[C@@H]3F)c(F)n2c1 [Example 33, (1S,2S)-2-fluoro-N-(3-fluoro-6-(3-fluoro-2-methylphenyl)imidazo[1,2-a]pyridin-2-yl)cyclopropane-1-carboxamide] | 101 to 1000 | 101 to 1000 | < 10
